Consider 22 molecules from ChEMBL document CHEMBL1131668, “Purin-8-ones as corticotropin-releasing hormone (CRH-R1) receptor antagonists” (Bioorg Med Chem Lett, 1999).

In general, Ki refers to the equilibrium dissociation constant of an inhibitor or competing ligand from its target.

Structures are written as SMILES.

For this experiment, the target named is T1, Corticotropin-releasing factor receptor 1 (Homo sapiens, UniProt P34998).
T1 sequence (P34998 whole entry): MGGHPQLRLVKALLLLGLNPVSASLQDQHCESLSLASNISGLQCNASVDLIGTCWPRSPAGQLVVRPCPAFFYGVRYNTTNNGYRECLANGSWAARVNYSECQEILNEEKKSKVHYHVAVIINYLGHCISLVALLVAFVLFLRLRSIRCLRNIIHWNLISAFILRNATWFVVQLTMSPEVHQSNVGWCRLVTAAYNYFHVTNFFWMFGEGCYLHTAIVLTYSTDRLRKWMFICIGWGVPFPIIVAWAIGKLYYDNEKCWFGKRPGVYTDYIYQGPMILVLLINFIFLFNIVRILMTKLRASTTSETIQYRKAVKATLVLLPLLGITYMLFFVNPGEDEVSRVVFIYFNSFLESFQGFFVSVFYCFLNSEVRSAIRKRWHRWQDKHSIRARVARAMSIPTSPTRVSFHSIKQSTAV
Description: Binding affinity for transfected human Corticotropin releasing factor receptor expressed in HEK 293E cells using [125I]TYR-oCRH as the displaced radioligand. The class given is cell-based, HEK293.
`CCCCN(CC)c1nc(C)nc2c1nc(O)n2-c1ccc(C(C)C)cc1Br` showed a Ki of 0.89 µM.
As for `CCCCN(CC)c1nc(C)nc2c1n(C)c(=O)n2-c1c(C)cc(C)nc1C`, the Ki turned out to be 0.124 µM.
As for `CCCN(CCC)c1nc(C)nc2c1n(C)c(=O)n2-c1c(C)cc(C)nc1C`, the figure is 0.259 µM; as for `CCCN(CC1CC1)c1nc(C)nc2c1n(C)c(=O)n2-c1ccc(C(C)C)cc1Br`, 0.0057 µM; as for `CCCCN(CC)c1nc(C)nc2c1nc(OCC1CC1)n2-c1ccc(C(C)C)cc1Br`, 0.0311 µM.
`CCCN(CC1CC1)c1nc(C)nc2c1n(C)c(=O)n2-c1c(C)cc(C)cc1C`: the affinity corresponds to a Ki of 0.0061 µM.
For `CCCCN(CC)c1cc(C)nc2c1n(C)c(=O)n2-c1ccc(C(C)C)cc1Br`, the inhibition constant Ki was 0.003 µM.
Molecule `COCCN(CC1CC1)c1nc(C)nc2c1n(C)c(=O)n2-c1ccc(C(C)C)cc1Br` had a Ki of 0.0122 µM.
As to `CCCCC(CC)Nc1nc(C)nc2c1n(C)c(=O)n2-c1c(C)cc(C)cc1C` (configuration not stated), the affinity, expressed as Ki, was 0.0174 µM. The Ki values of the last two molecules are within 1.5-fold of each other.
For `CCCCN(CC)c1nc(C)nc2c1nc(Cl)n2-c1ccc(C(C)C)cc1Br` the value was 0.0015 µM.
`COCCN(CCOC)c1nc(C)nc2c1n(C)c(=O)n2-c1c(C)cc(C)cc1C` had a Ki of 0.698 µM.
For `COCCN(CCOC)c1nc(C)nc2c1n(C)c(=O)n2-c1ccc(C(C)C)cc1Br` the value was 0.13 µM; for `CCCN(CCC)c1nc(C)nc2c1n(C)c(=O)n2-c1ccc(C(C)C)cc1Br`, 0.0076 µM.
As for `CCCCN(CC)c1nc(C)nc2c1nc(N1CCOCC1)n2-c1ccc(C(C)C)cc1Br`, the figure is 0.345 µM; as for `CCN(CCOC)c1nc(C)nc2c1n(C)c(=O)n2-c1ccc(C(C)C)cc1Br`, 0.0479 µM; as for `CCCCN(CC)c1nc(C)nc2c1nc(OC)n2-c1ccc(C(C)C)cc1Br`, 0.0015 µM.
For `COCCN(Cc1ccccc1)c1nc(C)nc2c1n(C)c(=O)n2-c1ccc(C(C)C)cc1Br`, the Ki came to 0.0262 µM.
As for `CCCCN(CC)c1nc(C)cc2c1n(C)c(=O)n2-c1ccc(C(C)C)cc1Br`, the figure is 0.463 µM.
As to `CCCN(CC1CC1)c1nc(C)nc2c1n(C)c(=O)n2-c1c(C)cc(C)nc1C`, the inhibitory constant (Ki) was determined as 0.113 µM.
For `CCCCN(CC)c1nc(C)nc2c1n(CC1CC1)c(=O)n2-c1ccc(C(C)C)cc1Br` the value was 0.117 µM; for `CCC(COC)Nc1nc(C)nc2c1n(C)c(=O)n2-c1ccc(C(C)C)cc1Br` (configuration not stated), 0.0428 µM.
In the case of `CCCCC(CC)Nc1nc(C)nc2c1n(C)c(=O)n2-c1ccc(C(C)C)cc1Br` (configuration not stated), the Ki is 0.0151 µM.
